Assay results: ChEMBL document CHEMBL5465560, “Selectivity Literature for EUbOPEN Chemogenomic Library” (2024)
Each block holds one compound with its values, some of them ahead of it.

Assays:
[1] = target: T1, Serine/threonine-protein kinase LATS1 (Homo sapiens) (UniProt O95835); settings: at 10 µM
T1 sequence (whole entry): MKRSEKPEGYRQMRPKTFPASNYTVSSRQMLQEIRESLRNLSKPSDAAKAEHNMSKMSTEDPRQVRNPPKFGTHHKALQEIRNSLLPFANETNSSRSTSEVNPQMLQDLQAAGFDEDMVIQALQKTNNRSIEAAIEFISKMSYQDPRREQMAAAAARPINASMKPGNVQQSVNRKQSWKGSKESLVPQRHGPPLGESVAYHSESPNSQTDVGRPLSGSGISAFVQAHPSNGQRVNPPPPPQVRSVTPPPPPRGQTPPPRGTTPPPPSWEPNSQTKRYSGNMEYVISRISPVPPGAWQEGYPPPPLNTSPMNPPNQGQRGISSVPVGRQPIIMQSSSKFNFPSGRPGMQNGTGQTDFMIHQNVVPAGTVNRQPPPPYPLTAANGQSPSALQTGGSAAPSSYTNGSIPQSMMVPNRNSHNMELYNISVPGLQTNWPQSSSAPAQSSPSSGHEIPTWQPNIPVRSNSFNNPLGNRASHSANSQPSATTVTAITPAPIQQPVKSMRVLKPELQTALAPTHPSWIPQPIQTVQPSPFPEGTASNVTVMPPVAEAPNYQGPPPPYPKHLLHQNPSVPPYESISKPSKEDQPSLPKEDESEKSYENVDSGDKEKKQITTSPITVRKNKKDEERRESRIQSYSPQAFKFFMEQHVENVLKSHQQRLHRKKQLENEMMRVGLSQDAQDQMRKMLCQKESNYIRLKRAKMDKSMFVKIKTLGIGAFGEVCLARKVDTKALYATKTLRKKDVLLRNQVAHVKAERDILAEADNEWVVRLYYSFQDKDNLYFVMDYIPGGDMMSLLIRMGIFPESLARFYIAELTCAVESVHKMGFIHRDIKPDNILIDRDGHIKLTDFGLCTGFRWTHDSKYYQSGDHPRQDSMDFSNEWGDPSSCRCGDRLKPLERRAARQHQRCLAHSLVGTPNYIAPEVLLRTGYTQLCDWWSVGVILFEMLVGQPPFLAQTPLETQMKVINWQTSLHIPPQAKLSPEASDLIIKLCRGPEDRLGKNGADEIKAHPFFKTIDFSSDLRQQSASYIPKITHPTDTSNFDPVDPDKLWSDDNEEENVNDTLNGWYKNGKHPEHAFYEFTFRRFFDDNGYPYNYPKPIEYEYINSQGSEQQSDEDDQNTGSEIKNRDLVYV

[2] = target: Muscarinic acetylcholine receptor M3 (Homo sapiens, UniProt P20309); test: Selectivity interaction (Muscarinic M3 receptor assay, human recombinant ) EUB0000877a CHRM3
Muscarinic acetylcholine receptor M3, sequence (P20309 whole entry): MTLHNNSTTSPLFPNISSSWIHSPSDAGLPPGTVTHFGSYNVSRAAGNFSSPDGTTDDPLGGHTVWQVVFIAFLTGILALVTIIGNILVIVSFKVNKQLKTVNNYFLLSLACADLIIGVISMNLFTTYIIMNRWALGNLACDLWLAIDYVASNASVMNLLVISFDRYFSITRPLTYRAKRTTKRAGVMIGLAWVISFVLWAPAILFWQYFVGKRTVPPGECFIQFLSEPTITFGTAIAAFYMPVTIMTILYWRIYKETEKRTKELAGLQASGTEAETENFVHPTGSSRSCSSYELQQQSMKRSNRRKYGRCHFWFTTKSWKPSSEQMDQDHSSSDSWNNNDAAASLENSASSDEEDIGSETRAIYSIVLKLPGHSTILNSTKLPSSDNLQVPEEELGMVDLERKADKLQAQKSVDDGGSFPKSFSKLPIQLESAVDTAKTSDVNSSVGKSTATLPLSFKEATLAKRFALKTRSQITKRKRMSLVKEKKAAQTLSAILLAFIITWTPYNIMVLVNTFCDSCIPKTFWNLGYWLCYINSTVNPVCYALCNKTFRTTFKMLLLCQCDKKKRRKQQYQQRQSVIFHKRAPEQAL

[3] = target: T2, Myosin-IIIb (Homo sapiens) (UniProt Q8WXR4); test: Selectivity interaction (KinomeScan (DiscoverX)) EUB0000092b MYO3B; settings: at 10 µM
T2 sequence (whole entry): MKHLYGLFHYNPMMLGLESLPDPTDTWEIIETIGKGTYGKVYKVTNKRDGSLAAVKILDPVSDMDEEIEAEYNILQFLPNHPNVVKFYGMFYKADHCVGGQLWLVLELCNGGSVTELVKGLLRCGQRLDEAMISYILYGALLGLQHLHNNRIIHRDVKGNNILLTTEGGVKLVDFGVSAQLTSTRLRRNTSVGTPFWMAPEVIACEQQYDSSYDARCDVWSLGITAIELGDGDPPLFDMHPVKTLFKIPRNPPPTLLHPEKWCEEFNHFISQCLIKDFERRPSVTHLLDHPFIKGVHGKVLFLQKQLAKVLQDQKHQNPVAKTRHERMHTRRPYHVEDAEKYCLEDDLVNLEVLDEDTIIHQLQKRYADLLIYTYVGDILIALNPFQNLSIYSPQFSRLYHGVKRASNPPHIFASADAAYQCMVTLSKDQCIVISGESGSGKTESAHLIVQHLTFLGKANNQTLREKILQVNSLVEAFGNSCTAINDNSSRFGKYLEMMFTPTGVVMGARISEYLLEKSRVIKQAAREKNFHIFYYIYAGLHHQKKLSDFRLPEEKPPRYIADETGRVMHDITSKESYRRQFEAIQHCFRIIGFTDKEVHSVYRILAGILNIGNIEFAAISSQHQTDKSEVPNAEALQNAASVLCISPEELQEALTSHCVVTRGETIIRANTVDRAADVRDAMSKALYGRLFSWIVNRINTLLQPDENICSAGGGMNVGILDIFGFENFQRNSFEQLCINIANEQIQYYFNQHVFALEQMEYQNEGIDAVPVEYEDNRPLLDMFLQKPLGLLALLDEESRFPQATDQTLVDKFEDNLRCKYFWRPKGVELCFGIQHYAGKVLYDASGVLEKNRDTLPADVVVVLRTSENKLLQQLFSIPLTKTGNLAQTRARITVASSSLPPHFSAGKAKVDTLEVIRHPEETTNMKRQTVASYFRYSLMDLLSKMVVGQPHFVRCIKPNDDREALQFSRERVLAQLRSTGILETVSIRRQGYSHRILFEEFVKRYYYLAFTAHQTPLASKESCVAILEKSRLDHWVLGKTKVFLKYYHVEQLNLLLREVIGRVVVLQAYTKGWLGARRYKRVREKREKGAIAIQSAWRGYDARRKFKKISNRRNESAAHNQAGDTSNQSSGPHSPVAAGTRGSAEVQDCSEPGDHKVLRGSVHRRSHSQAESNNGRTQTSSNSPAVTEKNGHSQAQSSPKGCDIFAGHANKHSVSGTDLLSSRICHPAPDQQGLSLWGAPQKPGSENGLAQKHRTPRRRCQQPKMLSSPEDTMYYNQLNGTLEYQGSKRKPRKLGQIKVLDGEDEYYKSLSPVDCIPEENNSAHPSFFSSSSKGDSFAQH

[4] = target: Tyrosine-protein kinase JAK2 (Homo sapiens, UniProt O60674); test: Selectivity interaction (SelectScreen profiling (Invitrogen)) EUB0000607a JAK2; settings: at 2 µM
Tyrosine-protein kinase JAK2, sequence (O60674 whole entry): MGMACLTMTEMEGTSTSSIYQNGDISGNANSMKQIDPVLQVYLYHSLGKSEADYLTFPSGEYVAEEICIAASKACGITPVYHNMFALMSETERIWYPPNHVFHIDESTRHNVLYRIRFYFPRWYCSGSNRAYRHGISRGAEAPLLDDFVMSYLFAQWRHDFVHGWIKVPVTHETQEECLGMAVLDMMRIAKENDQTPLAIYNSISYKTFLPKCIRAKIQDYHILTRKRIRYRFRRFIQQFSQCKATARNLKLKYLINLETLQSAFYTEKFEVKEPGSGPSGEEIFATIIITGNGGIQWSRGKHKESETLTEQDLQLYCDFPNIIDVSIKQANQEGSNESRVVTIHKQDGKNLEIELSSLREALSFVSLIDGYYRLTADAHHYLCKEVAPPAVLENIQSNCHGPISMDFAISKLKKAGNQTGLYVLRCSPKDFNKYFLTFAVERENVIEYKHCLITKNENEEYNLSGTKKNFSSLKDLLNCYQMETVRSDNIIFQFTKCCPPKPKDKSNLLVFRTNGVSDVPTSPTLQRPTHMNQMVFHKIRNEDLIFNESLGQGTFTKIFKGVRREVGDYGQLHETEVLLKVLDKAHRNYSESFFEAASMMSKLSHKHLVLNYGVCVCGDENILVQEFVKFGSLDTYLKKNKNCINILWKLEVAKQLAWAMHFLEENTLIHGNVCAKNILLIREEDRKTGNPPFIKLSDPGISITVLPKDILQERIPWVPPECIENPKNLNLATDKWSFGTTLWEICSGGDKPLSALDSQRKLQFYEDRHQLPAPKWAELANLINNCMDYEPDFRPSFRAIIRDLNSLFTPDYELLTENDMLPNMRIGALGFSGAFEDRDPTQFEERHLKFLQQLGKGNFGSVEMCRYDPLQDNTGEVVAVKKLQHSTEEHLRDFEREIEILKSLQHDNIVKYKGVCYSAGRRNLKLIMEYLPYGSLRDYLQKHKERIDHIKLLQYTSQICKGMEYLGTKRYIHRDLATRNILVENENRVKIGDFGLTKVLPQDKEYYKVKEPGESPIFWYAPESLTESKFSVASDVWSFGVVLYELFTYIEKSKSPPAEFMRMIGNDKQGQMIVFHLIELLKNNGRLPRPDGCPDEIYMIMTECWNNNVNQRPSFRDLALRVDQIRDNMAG

Structure (SMILES): Cc1cc([C@@H](C)Nc2ccccc2C(=O)O)c2nc(N3CCOCC3)cc(=O)n2c1 [AZD-6482]
% of control [1]: 100%

IC50 [2]: > 30 µM
Structure (SMILES): CCC(=O)N1CC[C@H](Nc2ncnc3c2CN(c2cnc(OC)c(C(F)(F)F)c2)CC3)C1 [LENIOLISIB]

Structure (SMILES): CCC(=O)N1CCN(c2ccc(-n3c(=O)ccc4cnc5ccc(-c6cnc7ccccc7c6)cc5c43)cc2C(F)(F)F)CC1
% of control [3]: 100%

Structure (SMILES): CNC(=O)Nc1ccc(-c2nc(N3CC4CCC(C3)O4)c3cnn(C4CCC5(CC4)OCCO5)c3n2)cc1
% of inhibition [4]: 2%
